The subject of series [1] is TFK1 cells. The settings on record: PFKL-knockout (sgPFKL) TFK1 cells and PFKL-overexpressing (ovPFKL) HuCCT1 cells; LC-MS/MS of cell lysates; n=3 biological replicates; Supplementary Fig. 5f.
The next series concerns TOV21G cells. The series is described as follows: Cell viability assay (CellTiter-Glo, 72 h), GI50. Type of series: cell-based. The following applies: Homo sapiens, Fig. 6a. The procedure: (§1) Cell viability was assessed using the CellTiter-Glo luminescent cell viability assay (Vazyme, DD1101) following the manufacturer’s instructions. Briefly, 5000 cells per well were seeded into a 96-well white bottom permeable plate. Different concentrations of drugs were added to each well. After 72 h of treatment, a mixture of CellTier reagent and serum-free culture medium was prepared at a 1:1 ratio, and 100 μL of the mixture was added to each well. After incubation at 37 °C for 15 min, the luminescence was measured using a microplate reader (Synergy H1, Biotek). All the experiments were conducted in triplicate. Cell viability (relative luminescence) was defined as the luminescence of the drug treatment relative to that of the vehicle control.

A further series has as its system RMG-I cells. The series is described as follows: Cell viability assay (CellTiter-Glo, 72 h), GI50. It counts as cell-based. The following applies: Homo sapiens. The procedure:
as §1
(In general: In ATP-based viability assays light output follows the ATP content of the culture.)

The next series relates to NCI-H596 cells. The series is described as follows: Cell viability assay (CellTiter-Glo, 72 h), GI50. Type of series: cell-based. The following applies: Homo sapiens, Fig. 6a. Here is the method: as §1
A further series deals with BT-549 cells. The series is described as follows: Cell viability assay (CellTiter-Glo, 72 h), GI50. It counts as cell-based. The following applies: Homo sapiens, BT-549, 72 h. Here is the method: as §1
In the next series the test system is MCF7 cells. The series is described as follows: Cell viability assay (CellTiter-Glo, 72 h), GI50. It counts as cell-based. The settings on record: Homo sapiens, Fig. 6a. The procedure:
as §1

The next series has as its system A549 cells. Put plainly: Cell viability assay (CellTiter-Glo, 72 h), GI50. Type of series: cell-based. The following applies: Homo sapiens, A549, 72 h. The procedure: as §1
Series [2] deals with H3K9ac and H3K27ac in TFK1 cells. Put plainly: Immunoblot of H3K9ac and H3K27ac. It counts as cell-based, human. The settings on record: prolonged romidepsin treatment, n = 3 biological replicates, Fig. 3f. Here is the method:
For immunoblotting, cells were washed with ice-cold PBS and lysed in RIPA lysis buffer (supplemented with protease inhibitor and phosphatase inhibitor cocktails Ⅱ and Ⅲ) for 15 min at 4 °C. The protein concentrations of the samples were normalized using a BCA protein assay kit (Thermo). Immunoblots were performed with specific primary antibodies, followed by the addition of a fluorescein-conjugated secondary antibody, after which the proteins were detected via an Odyssey fluorescence scanner (LI-COR).

Series [3] concerns TFK1 cells. Put plainly: Cell viability assay (CellTiter-Glo, 72 h), GI50. Type of series: cell-based, human. The following applies: Homo sapiens. Here is the method:
as §1

Where [4] appears, read: romidepsin combined with NS or peptide, Fig. 6c.

SMILES strings stand for the structures.

As usually defined, the GI50 is the concentration at which growth is held to half of that of the control. For the molecule `C/C=C1\NC(=O)[C@H]2CSSCC/C=C/[C@H](CC(=O)N[C@H](C(C)C)C(=O)N2)OC(=O)[C@H](C(C)C)NC1=O` [Romidepsin, romidepsin], the “cellular uptake of romidepsin with differential expression of PFKL” value in the series with TFK1 cells [1] was “did not affect the cellular uptake”. Also, the GI50 with TOV21G cells was determined as 0.36 nM; in the series on RMG-I cells (Fig. 6a) it was 5.71 nM; with RMG-I cells (setting [4]) it was 9.48 nM; with NCI-H596 cells, 0.12 nM; with BT-549 cells (BT549, romidepsin combined with NS or peptide, Fig. 6c), 16.2 nM; in the series with BT-549 cells (BT-549, Fig. 6a), 13.7 nM. Also, the GI50 in the series with MCF7 cells came to 0.56 nM; with A549 cells (Fig. 6a), 5.87 nM; in the series on A549 cells (setting [4]), 7.62 nM. For the same molecule, the “acetylation at the H3K9 and K27 histone sites” value in [2] is listed as “gradual increase in acetylation”.

Regarding `Cc1[nH]c2ccccc2c1CCNCc1ccc(/C=C/C(=O)NO)cc1` [Panobinostat, panobinostat], the GI50 in the series on TFK1 cells [3] (TFK1, CellTiter-Glo, Fig. 1b) came out at 62.7 nM; with TFK1 cells [3] (TFK1 after interference with LHCGR si-1, Fig. 1f) it was 31 nM; in the series with TFK1 cells [3] (TFK1 after interference with LHCGR si-2, Fig. 1f), 28.3 nM; with TFK1 cells [3] (TFK1 after interference with NFIA si-1, Fig. 1f) it was 42.7 nM; in the series with TFK1 cells [3] (TFK1 after interference with NFIA si-2, Fig. 1f), 46.6 nM; in the series on TFK1 cells [3] (TFK1 after interference with PFKFB1 si-1, Fig. 1f), 45.1 nM. Moreover, the GI50 was 60.6 nM in the series with TFK1 cells [3] (TFK1 after interference with PFKFB1 si-2, Fig. 1f); 605 nM with TFK1 cells [3] (TFK1 after interference with PFKL si-1, Fig. 1f); 402 nM in the series on TFK1 cells [3] (TFK1 after interference with PFKL si-2, Fig. 1f); 53.9 nM in the series with TFK1 cells [3] (TFK1 expressing sgNC, Fig. 1g); 964 nM with TFK1 cells [3] (TFK1 expressing sgPFKL-1, Fig. 1g); 644 nM in the series on TFK1 cells [3] (TFK1 expressing sgPFKL-2, Fig. 1g). The GI50 in the series with TFK1 cells [3] (TFK1 siNC, Fig. 1f) is 40.1 nM.

(Values after article PMC12518634, “The noncanonical function of liver-type phosphofructokinase potentiates the efficacy of HDAC inhibitors in cancer” (Signal Transduction and Targeted Therapy, 2025).)
